# Results published in patent publication US20020045780A1, “Biologically active spermidine analogues, pharmaceutical compositions and methods of treatment” (priority 1997, published 2002).
# “And” between values parts separate entries of the source, which are not always exact repeats. Equal entries are not always repeated. “Also recorded” adds a separate entry of the source. Structures can show the parent of a compound that is named as a salt. Where two headings read alike, the source gives them in different places.
# Tests used:
# L1210 cells [1] = assay: Metabolic transformation of polyamine analogues by L1210 cells; type: in vitro ADME, murine; details: for N-dealkylation (result in words): L1210 cells, data not shown, concentration not given; for Parent drug as % of total drug in the cell / Parent drug in L1210 cells / N-Monodealkylation (result in words): 48 hours; for N-Monodealkylation (result in words): Trihydrochloride
# Method: The cells were washed twice with cold RPMI-1640, and the pellet was treated with 0.6 N HClO4 (1 ml/10^7 cells). Polyamine contents of the perchloric acid extracts were quantitated by HPLC of the DANSYL derivatives [Bergeron et al, J. Med. Chem., Vol. 37, supra].
# L1210 cells [2] = details: 48 hours, cited from earlier work; for Analogue, corresponding tetraamine (in parentheses): intracellular amount
# [3] = test system: spermidine/spermine acetyltransferase (SSAT); details: L1210, 2 μM at 48 hours (tetraamine analogues); cited from earlier work
# [4] = biological target: polyamine transport apparatus; details: inhibition of spermidine transport, L1210; read-out: Ki, corresponding tetraamine (in parentheses); cited from earlier work
# L1210 cells [5] = details: cited from earlier work
# [6] = test system: S-adenosylmethionine decarboxylase (AdoMetDC); details: L1210, 1 μM at 6 hours; cited from earlier work
# L1210 cells [7] = assay: Polyamine pool analysis in L1210 cells; type: cell-based, murine; details: for activity at 3 µM / activity at 15 µM / activity at 100 µM / activity at 500 µM / activity at 75 µM: Mus musculus, % of untreated control; for activity at 3 µM / activity at 15 µM / activity at 75 µM: L1210; for activity at 3 µM / activity at 15 µM / Analogue / activity at 75 µM: 48 hours; for Analogue: intracellular amount; for activity at 100 µM / activity at 500 µM: L1210, 48 h
# In short: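 Cells were exposed to each analogue for 48 h at two concentrations. Washed pellets were extracted with 0.6 N HClO4 (1 ml/10^7 cells), and polyamines were quantified by HPLC of dansyl derivatives.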
# [8] = test system: S-adenosylmethionine decarboxylase (AdoMetDC); assay: AdoMetDC activity in treated L1210 cells; type: cell-based, murine; details: L1210, 1 μM at 6 hours
# In short: (§1)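 L1210 cells treated with triamines; ODC activity measured at 4 h and AdoMetDC at 6 h as ^14CO2 released from [^14C]-carboxyl-labeled L-ornithine (ODC) or S-adenosyl-L-methionine (AdoMetDC). Untreated cells served as controls and DEHSPM-treated cells as positive controls.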
# mice = type: in vivo; details: for Chronic toxicity in mice relative to the related tetraamine: ratio of chronic LD50 values, Table 7
# Method: In the chronic toxicity regimen, mice were administered the polyamine analogue in three doses per day (t.i.d.) for six days for a total of eighteen injections per animal and observed for 10 days after the final dose for lethalities. […] A similar difference is also observed in the chronic toxicity of DE(3,4).
# (§2) Acute and chronic toxicities were assessed in 10-12 week old CD-1 female mice from Harlan Sprague-Dawley. For acute toxicities, the polyamine analogues were administered in a single i.p. injection to groups of five or six animals at each dose. The animals were scored two hours after administration of the dose. All survivors were further observed for 10 days to assess late onset of toxicity from the single acute dose. In the chronic toxicity regimen, mice were administered polyamine analogue in three i.p. doses per day (t.i.d.) for six days, for a total of eighteen doses per animal. Appetite, weight and overall appearance were monitored daily. […] At least three test groups of 5-6 animals each, representing three different dose levels, were evaluated for each analogue tested. These dose levels were chosen so that at least two groups presented with lethalities, one with a high fraction of lethalities (>0.50, but <1.00).
# [9] = test system: ornithine decarboxylase (ODC); assay: ODC activity in treated L1210 cells; type: cell-based, murine; details: L1210, 1 μM at 4 hours
# In short: as §1
# [10] = test system: polyamine transport apparatus; assay: Competitive uptake determination: inhibition of [3H]spermidine transport into L1210 cells; type: cell-based, murine; details: analogue inhibition of spermidine transport
# In short: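 Analogues competed with [3H]spermidine for uptake into L1210 cells. Values are Ki, derived from Lineweaver–Burk analysis as competitive inhibition with respect to spermidine.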
# [11] = Acute toxicity in mice (single i.p. dose); type: in vivo; details: female, CD-1, mouse, in vivo, ip, mice, single dose i.p., scored two hours after dose, read-out: Acute LD50
# Method: In the current study, the acute toxicity of six analogues and the chronic toxicity of two triamines were measured (Table 7). The value of all polyamine LD50s are shown in both mg/kg and mmol/kg for comparison. […] The animals were scored two hours after administration of the drug. It is clear that the acute LD50s for triamine analogues are approximately twice the acute LD50s for the corresponding tetraamine analogues.
# as §2
# L1210 cells [12] = assay: L1210 growth inhibition, IC50 determination; type: cell-based, murine
# Method: Murine L1210 leukemia cells (ATCC CCL 219) were maintained in logarithmic growth in RPMI-1640 medium containing 10% fetal calf serum or a semi-synthetic equivalent, NuSerum, 2% HEPES-MOPS buffer and 1 mM aminoguanidine.
# [13] = test system: spermidine/spermine acetyltransferase (SSAT); assay: SSAT activity in treated L1210 cells; type: cell-based, murine; details: L1210, 10 μM at 48 hours (triamine analogues)
# From the text: Spermidine/spermine N^1-acetyltransferase activity was based on quantitation of [^14C]-N^1-acetylspermidine formed by acetylation of SPD with [^14C] acetyl coenzyme A according to the method of Libby et al [Biochem. Pharmacol., Vol. 38, supra]. Cells treated with DENSPM were positive controls.
# [14] = L1210, 48 hour exposure, read-out: IC50 48 hour, corresponding tetraamine (in parentheses)
# [15] = L1210, 96 hour exposure, read-out: IC50 96 hour, corresponding tetraamine (in parentheses)
# [16] = mice, i.p. t.i.d. × 6 days, hydrochloride salts
# [17] = Mus musculus, L1210, 48 h, L1210, 48 hour exposure, read-out: IC50 48 hour
# [18] = Mus musculus, L1210, 96 h, L1210, 96 hour exposure, read-out: IC50 96 hour
Structure (SMILES),N-dealkylation (result in words) (L1210 cells [1]),"Analogue, corresponding tetraamine (in parentheses) (L1210 cells [2]; 100 μM)","Analogue, corresponding tetraamine (in parentheses) (L1210 cells [2]; 500 μM)","SSAT activity, corresponding tetraamine (in parentheses) [3]",Ki [4] [µM],IC50 (L1210 cells [5]; [14]) [µM],IC50 (L1210 cells [5]; [15]) [µM],"AdoMetDC activity, corresponding tetraamine (in parentheses) [6]",Parent drug as % of total drug in the cell (L1210 cells [1]; 100 μM analogue) [%],Parent drug in L1210 cells (L1210 cells [1]; 100 μM analogue) [pmols/10^6],"activity at 15 µM (L1210 cells [7]; 15 μM, read-out: Put) [%]","activity at 15 µM (L1210 cells [7]; 15 μM, read-out: Spd) [%]","activity at 15 µM (L1210 cells [7]; 15 μM, read-out: Spm) [%]","AdoMetDC activity, percent of untreated control [8]","ODC activity, percent of untreated control [9]",Ki [10] [µM],LD50 at 2 h ([11]; hydrochloride salts) [mg/kg],LD50 at 2 h [11] [µmol/kg],IC50 (L1210 cells [12]; [17]) [µM],IC50 (L1210 cells [12]; [18]) [µM],also measured
CNCCCNCCCNCCCNC [DMNSPM],no evidence of N-dealkylation,(2.14) nmol/10^6 cells,(1.84) nmol/10^6 cells,200% of untreated control,5.6,> 100,2.5,49% of untreated control,–,–,–,–,–,–,–,–,–,–,–,–,"Put, corresponding tetraamine (in parentheses) (L1210 cells [2]; % of untreated control, 500 μM): (0) %; Spd, corresponding tetraamine (in parentheses) (L1210 cells [2]; % of untreated control, 500 μM): (3) %; Spm, corresponding tetraamine (in parentheses) (L1210 cells [2]; % of untreated control, 500 μM): (27) %"
CNCCCNCCCCNCCCNC [DMSPM],no evidence of N-dealkylation,(1.26) nmol/10^6 cells,(1.24) nmol/10^6 cells,300% of untreated control,1.1,> 100,0.75,40% of untreated control,–,–,–,–,–,–,–,–,–,–,–,–,–
"CCNCCCCCNCCCCNCC [DE(4,5), 3,8,14-Triazahexadecane Trihydrochloride]",–,–,–,–,–,–,–,–,100,4215,0,18,98,70% of untreated control,100% of untreated control,64,555,1640,2 to 6,0.19 to 0.2,"N-Monodealkylation (result in words) (L1210 cells [1]; 100 μM analogue): do not show significant N-deethylation; also recorded: no N-deethylation; activity at 3 µM (L1210 cells [7]; 3 μM, read-out: Put): 0%; activity at 3 µM (L1210 cells [7]; 3 μM, read-out: Spd): 47%; activity at 3 µM (L1210 cells [7]; 3 μM, read-out: Spm): 99%; Analogue (L1210 cells [7]; 3 μM): 1.20 nmol/10^6 cells; Analogue (L1210 cells [7]; 15 μM): 3.40 nmol/10^6 cells; Chronic LD50 (triamines) (mice; [16]): 375 mg/kg-day; Chronic LD50 (triamines) (mice; mouse, in vivo, ip): 1.11 mmol/kg/day; Chronic toxicity in mice relative to the related tetraamine (mice; Trihydrochloride): about eight-fold less toxic than the DE(4,5,4); also recorded: greater than ten-fold less toxic than DE(5,4,5); IC50 (L1210 cells [12]; L1210, 48 hour exposure, Trihydrochloride, read-out: IC50 48 hour): 3 to 6 µM; SSAT activity, percent of untreated control ([13]; Trihydrochloride): 120% of untreated control and 120 (120) percent of untreated control"
"CCNCCCCNCCCNCC [DESPD, N^1,N^8-Diethylspermidine Trihydrochloride]",–,–,–,–,–,–,–,–,96.3,4041,–,–,–,68% of untreated control,30% of untreated control,19.3,> 650,> 3220,~100,0.6 to 0.8,"activity at 100 µM (L1210 cells [7]; 100 μM, read-out: Put): 0%; activity at 100 µM (L1210 cells [7]; 100 μM, read-out: Spd): 5%; activity at 100 µM (L1210 cells [7]; 100 μM, read-out: Spm): 74%; activity at 500 µM (L1210 cells [7]; 500 μM, read-out: Put): 0%; activity at 500 µM (L1210 cells [7]; 500 μM, read-out: Spd): 0%; activity at 500 µM (L1210 cells [7]; 500 μM, read-out: Spm): 55%; Analogue (L1210 cells [7]; 100 μM): 4.61 nmol/10^6 cells; Analogue (L1210 cells [7]; 500 μM): 4.20 nmol/10^6 cells; Animals died on day 6 (mice; female, CD-1, mouse, in vivo, 15 mg/kg, 3 days): 4/5; Animals died on day 7 (mice; female, CD-1, mouse, in vivo, 15 mg/kg, 7 day): 5/5; Chronic LD50 (triamines) (mice; [16]): 426 mg/kg-day; Chronic LD50 (triamines) (mice; mouse, in vivo, ip): 1.37 mmol/kg/day; Chronic toxicity in mice relative to the related tetraamine (mice): about five times less toxic than DE(3,4,3); SSAT activity, percent of untreated control [13]: 1380% of untreated control"
CCNCCCNCCCNCCCN [MENSPM],–,–,–,410% of untreated control,7.7,> 100,2.5,33% of untreated control,–,–,–,–,–,–,–,–,–,–,–,–,–
"CCNCCCCCNCCCCCNCC [DE(5,5), 3,9,15-Triazaheptadecane Trihydrochloride]",–,–,–,–,–,–,–,–,–,–,0,55,97,109% of untreated control,100% of untreated control,174,500,1420,10 to 12,0.65 to 0.7,"Parent drug as % of total drug in the cell (L1210 cells [1]; 75 μM analogue): 100%; Parent drug in L1210 cells (L1210 cells [1]; 75 μM analogue): 1585 pmols/10^6; N-Monodealkylation (result in words) (L1210 cells [1]; 75 μM analogue): do not show significant N-deethylation; N-Monodealkylation (result in words) (L1210 cells [1]; 75 μM analogue, listed as DE-[6,6]): no N-deethylation; activity at 75 µM (L1210 cells [7]; 75 μM, read-out: Put): 0%; activity at 75 µM (L1210 cells [7]; 75 μM, read-out: Spd): 23%; activity at 75 µM (L1210 cells [7]; 75 μM, read-out: Spm): 73%; Analogue (L1210 cells [7]; 15 μM): 1.09 nmol/10^6 cells; Analogue (L1210 cells [7]; 75 μM): 1.59 nmol/10^6 cells; SSAT activity, percent of untreated control [13]: 90% of untreated control"
